How the values were obtained:
[1] = Loading (encapsulation) efficacy of essential oils into AgriCell, UV-Vis after ethanol extraction; format: physicochemical; conditions: EO encapsulated into AgriCell; original concentration of EO 200 mg/mL
Protocol: After […] are purified, the concentrated […] paste or dry lyophilized powder is loaded with EOs. If dry, the […] are first homogenized into a finer powder through mechanical homogenization. A stock solution from each EO is prepared in ethanol at 100 mg/mL-200 mg/mL. Lyophilized […] would then be suspended in a solution with the EO solution at a ratio of 1 g of dry […] to 10 mL of EO solution. Once resuspended, the ethanol is allowed to evaporate overnight, leaving behind EO encapsulated […] in the process. After this overnight period, encapsulated […] are removed from the beaker, and the EO-encapsulated […] powder is mechanically homogenized. This encapsulated product is ready for resuspension in its appropriate medium.

[2] = 7 days, 20 mg/mL
Source text: One replicate of each EO per treatment was collected daily and tested for EO content. Results were reported as concentration of EO as function of time for each stability condition.

[3] = 20 mg/mL; for percentage existing / remaining (not damaged) after autoxidation: 168 h; for percentage degraded by autoxidation: 7 days
Source text: Results were reported as concentration of EO as function of time for each stability condition.

Row | Structure (SMILES) | encapsulation efficacy [1] [%] | percentage of degradation (thermal) [2] [%] | percentage existing / remaining (not damaged) after autoxidation [3] [%] | percentage degraded by autoxidation [3] [%]
1 | Cc1ccc(C(C)C)c(O)c1 [free thymol, thymol] | 91.8 | 79.1 | 44.2 | 55.8
2 | C=CCc1ccc(O)c(OC)c1 [free eugenol, Eugenol] | 95.5 | 82.7 | 17.3 | 82.7

From US20240049706A1, “COMPOSITIONS AND METHODS FOR CONTROLLING INSECTS” (priority 2020, published 2024)
